Results: patent US12268677B2, “4-aminopyridine (4-AP) and bone morphogenetic protein 2 (BMP-2)” (The Penn State Research Foundation, priority 2022, dated 2025)

Legend:
[1] = test system: BMP-2 gene expression in human fetal osteoblasts (hFOB); assay: BMP-2 gene expression in human fetal osteoblasts (hFOB) by quantitative real-time PCR; assay type: cell-based; conditions: 1000 μM 4-AP for 3 days, normalized with β-actin
Description: FIG. 3. 4-AP upregulates BMP-2 gene expression in human fetal osteoblasts (hFOB). […] The gene expression levels were normalized with β-actin and was then used to calculate fold change in 4-AP treated compared to control. Data are presented as mean±SEM (n=3). Values are significant at *p<0.05. Abbreviations used; 4-AP—4-aminopyridine. Human fetal osteoblasts (hFOB) were cultured in growth medium supplemented with 4-AP for 3 days. Total RNA was isolated from the cells at the end of treatment, converted to cDNA, and the gene expression of bone morphogenetic protein-2 (BMP-2) was analyzed by quantitative real-time PCR (FIG. 3).

[2] = test system: tibial fracture in C57BL/6J mice; assay: Mid-diaphysis tibial fracture healing in mice, micro-CT analysis of callus; assay type: in vivo
Description: 8 week old C57Bl/6J mice were subjected to mid-diaphysis tibial fracture, treated with 4-AP for 21 days, and harvested. FIG. 4A: Representative X-ray images at the end of 21 days of 4-AP treatment. FIG. 4B: Representative micro-CT images of tibia fracture on day 21. […] FIG. 4D: Graphical presentation of Micro CT analysis of bone mineral density (BMD), and bone volume density (BV/TV). Data are presented as mean±SEM (n=6). Values are significant at *p<0.05.
Ten-week-old male C57/BL6J mice were purchased from the Jackson laboratory (Bar Harbor, ME, USA) and were maintained in a 12-h light, 12-h dark cycle at 21.1° C. to 22.8° C. After acclimatization, all mice were randomly divided in to two groups: 1) control and 2) 4-AP.
A mid diaphysis tibial fracture was performed in ten-week-old male mice. After the mice were anesthetized with ketamine/xylazine, a 5 mm longitudinal incision will be made at the front of the proximal tibia. The mid diaphysis of the tibia will be identified, and an osteotomy will be created with a No. 11 scalpel blade preventing any comminution. A 27G hypodermic needle will be introduced into the tibial canal for intramedullary fixation. Buprenorphine was given as post-operative analgesia. X-ray images were acquired post-operatively and mice received saline or 4-AP on the same day. Control group received 100 μl of saline, and a 4-AP group received 40 μg/mouse/daily 4-AP (1.6 mg/kg) in saline intraperitoneally until day 21 post-surgery.
For micro-CT analysis, tibia of control and 4-AP mice were dissected of soft tissue and fixed in neutral buffered formalin. μCT scanning was conducted using a Scanco vivaCT 40. […] Callus area from control and 4-AP mice tibia were assessed for bone mineral density (BMD) and percent bone volume per total volume (% BV/TV).
Tibial fracture was performed in C57BL/6J mice, which were then treated with 4-AP for 21 days for the evaluation of fracture healing parameters. The bone mineral density and bone volume density were determined by micro-CT analysis at the end of 21 days 4-AP treatment.

[3] = test system: BMP-2 gene expression in human bone marrow mesenchymal stem cells (hBMSCs); assay: BMP-2 gene expression in hBMSCs by quantitative real-time PCR; assay type: cell-based; conditions: 1000 μM 4-AP
Description: FIG. 1. 4-AP upregulates BMP-2 expression in human bone marrow mesenchymal stem cells (hBMSCs). hBMSCs were incubated in Dulbecco's modified Eagle's medium supplemented with 10% FBS and penicillin/streptomycin (100 U/mL penicillin and […] streptomycin) in the presence of 1000 μM 4-AP induced expression of BMP-2 gene. BMP-2 gene expression was increased at day 3 and remained high at day 7 and day 14. The gene expression levels of BMP-2 were normalized with β-actin and were then used to calculate fold change in 4-AP treated compared to control. Data are presented as mean±SEM (n=3). Values are significant at *p<0.05, **p<0.01. Abbreviations used; BMP-2 —bone morphogenetic protein-2. Human bone marrow mesenchymal stem cells (hBMSC) were cultured in growth medium supplemented with 4-AP for 3, 7, and 14 days. Total RNA was isolated from the cells at the end of treatment, converted to cDNA, and the gene expression of bone morphogenetic protein-2 (BMP-2) was analyzed by quantitative real-time PCR. Gene expression by quantitative real-time PCR: Quantitative real-time PCR was carried out to determine gene expression of BMP-2 by hBMSCs incubated in Dulbecco's modified Eagle's medium with 10% fetal bovine serum (FBS) and penicillin/streptomycin (100 U/mL penicillin and […] streptomycin) at a humidified atmosphere of 5% CO2 under 37° C. Cell cultures were supplemented with 1000 μM 4-AP for 3, 7, and 14 days. Total RNA was isolated from the cells and converted to cDNA using verso cDNA synthesis kit (Thermo Fischer Scientific). The cDNA obtained was analyzed in a quantitative real-time PCR (FIG. 1).

BMP-2 protein in hBMSCs = assay: BMP-2 protein level in hBMSCs by western blot; assay type: cell-based, human; conditions: 1000 μM 4-AP
Description: FIGS. 2A-2B. Western blot analysis of BMP-2 protein. Incubation of hBMSCs in Dulbecco's modified Eagle's medium supplemented with 10% FBS and penicillin/streptomycin (100 U/mL penicillin and […] streptomycin) in the presence of 1000 μM 4-AP increased BMP-2 protein at day 3, 7, and 14. The blots were stripped and reprobed with anti-GAPDH antibody. FIG. 2A: Representative image of a western blot of BMP-2 at day 3, 7, and 14. FIG. 2B: Densitometric analysis was carried out and the BMP-2 was normalized with GAPDH to calculate fold change. Data are presented as mean±SEM (n=3). Values are significant at *p<0.05, Abbreviations used; 4—AP-4-aminopyridine, BMP-2—bone morphogenetic protein-2, GAPDH-glyceraldehyde-3-phosphate dehydrogenase. Protein level by western blot: Total protein was extracted from hBMSCs with RIPA lysis buffer at the end of 3, 7, and 14 days of 4-AP treatment. The protein concentrations of cell lysates were determined using Pierce BCA Protein Assay kit (Thermo Fischer Scientific). Total cell lysates containing equal amounts of protein were denatured with SDS reducing buffer. The denatured proteins were separated on 10% polyacrylamide gel and transferred to a PVDF membrane. The blots were blocked and probed with primary and secondary antibodies, followed by visualization of bands by chemiluminescence peroxidase substrate. The BMP-2 band intensities were analyzed by ImageJ software (FIGS. 2A and 2B).

[4] = C57BL/6J mice, tibial fracture, 40 μg/mouse/daily 4-AP (1.6 mg/kg) intraperitoneally, 21 days, micro-CT, compared to saline treated controls

## Nc1ccncc1 [4-AP, 4-aminopyridine]
[1]
  expression of BMP-2 compared with the control group: significantly increased
[2]; [4]
  bone mineral density within the callus area: higher
  bone volume density (BV/TV) within the callus area: higher
[2]; C57Bl/6J mice, mid-diaphysis tibial fracture, treated with 4-AP for 21 days
  bone fracture healing: enhanced
[3]; day 3
  BMP-2 gene expression (fold change vs control, normalized with β-actin): increased
[3]; day 7
  BMP-2 gene expression (fold change vs control, normalized with β-actin): remained high
[3]; day 14
  BMP-2 gene expression (fold change vs control, normalized with β-actin): remained high
BMP-2 protein in hBMSCs; day 3
  BMP-2 protein (western blot, normalized with GAPDH): increased
BMP-2 protein in hBMSCs; day 7
  BMP-2 protein (western blot, normalized with GAPDH): increased
BMP-2 protein in hBMSCs; day 14
  BMP-2 protein (western blot, normalized with GAPDH): increased
